Source: the supplement of paper PMC10307832

Columns and labels:
Experiment in all cases: relative viability (nuclei count vs DMSO), 5 days (fraction); higher = more cells survive
Kobe2602 + Palbociclib = compound: C1=CC(=CC=C1NC(=S)NNC2=C(C=C(C=C2[N+](=O)[O-])C(F)(F)F)[N+](=O)[O-])F [Kobe2602] + CC(=O)c1c(C)c2cnc(Nc3ccc(N4CCNCC4)cn3)nc2n(C2CCCC2)c1=O [Palbociclib] (partner 0.5 µM)
Method in brief: (§1)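 Relative viability divides the nuclei count in treated wells by that in vehicle wells. Lung cancer cell lines were seeded in 1536-well plates, dosed by pin tool the next day, and fixed and stained after 5 days in one step with final 0.05% Triton X-100, 1% formaldehyde and 1 ug/ml Hoechst. Dosing was a single drug or a fixed anchor-drug dose plus five library-drug doses (not always all listed) in √10 steps, and values are medians of duplicate plates imaged at 4×.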

[1] = compound: COc1cc2nccc(Oc3ccc(NC(=O)C4(C(=O)Nc5ccc(F)cc5)CC4)cc3)c2cc1OC [Cabozantinib] + Cc1cc(Nc2cc(N3CCN(C)CC3)nc(Sc3ccc(NC(=O)C4CC4)cc3)n2)n[nH]1 [Tozasertib] (partner 0.1 µM)
Method in brief: as §1

Zosuquidar + Navitoclax = compound: O[C@@H](COc1cccc2ncccc12)CN1CCN([C@@H]2c3ccccc3[C@@H]3[C@H](c4ccccc42)C3(F)F)CC1 [Zosuquidar] + CC1(C)CCC(c2ccc(Cl)cc2)=C(CN2CCN(c3ccc(C(=O)NS(=O)(=O)c4ccc(N[C@H](CCN5CCOCC5)CSc5ccccc5)c(S(=O)(=O)C(F)(F)F)c4)cc3)CC2)C1 [Navitoclax] (partner 0.5 µM)
Method in brief: as §1

Zosuquidar + AZD7762 = compound: O[C@@H](COc1cccc2ncccc12)CN1CCN([C@@H]2c3ccccc3[C@@H]3[C@H](c4ccccc42)C3(F)F)CC1 [Zosuquidar] + NC(=O)Nc1cc(-c2cccc(F)c2)sc1C(=O)N[C@H]1CCCNC1 [AZD7762] (partner 0.2 µM)
Method in brief: as §1

Cell Line | relative viability (Kobe2602 + Palbociclib; first compound 0.2 µM) | relative viability (Kobe2602 + Palbociclib; first compound 0.6325 µM) | relative viability (Kobe2602 + Palbociclib; first compound 2 µM) | relative viability (Kobe2602 + Palbociclib; first compound 6.325 µM) | relative viability (Kobe2602 + Palbociclib; first compound 20 µM) | relative viability ([1]; first compound 0.02 µM) | relative viability ([1]; first compound 0.06325 µM) | relative viability ([1]; first compound 0.2 µM) | relative viability ([1]; first compound 0.6325 µM) | relative viability ([1]; first compound 2 µM) | relative viability (Zosuquidar + Navitoclax; first compound 0.01 µM) | relative viability (Zosuquidar + Navitoclax; first compound 0.03162 µM) | relative viability (Zosuquidar + Navitoclax; first compound 0.1 µM) | relative viability (Zosuquidar + Navitoclax; first compound 0.3162 µM) | relative viability (Zosuquidar + Navitoclax; first compound 1 µM) | relative viability (Zosuquidar + AZD7762; first compound 0.01 µM) | relative viability (Zosuquidar + AZD7762; first compound 0.03162 µM) | relative viability (Zosuquidar + AZD7762; first compound 0.1 µM) | relative viability (Zosuquidar + AZD7762; first compound 0.3162 µM) | relative viability (Zosuquidar + AZD7762; first compound 1 µM)
NCI-H2405 | 0.52 | 0.572 | 0.537 | 0.553 | 0.528 | 0.743 | 0.856 | 0.777 | 0.789 | 0.667 | 1.01 | 0.853 | 0.723 | 1.07 | 0.894 | 0.691 | 0.714 | 0.766 | 0.739 | 0.539
NCI-H3122 | 0.184 | 0.169 | 0.194 | 0.201 | 0.212 | 0.412 | 0.431 | 0.385 | 0.42 | 0.458 | 1.04 | 0.98 | 1.05 | 1.02 | 1.01 | 0.812 | 0.916 | 0.844 | 1.01 | 1
PC-3 [JPC-3] | 0.587 | 0.524 | 0.561 | 0.482 | 0.501 | 0.928 | 1.04 | – | 0.938 | 0.861 | 0.783 | 0.775 | 0.755 | 0.792 | 0.755 | 0.78 | 0.9 | 0.648 | 0.836 | 0.524
PC-14 | 0.502 | 0.51 | 0.539 | 0.455 | 0.32 | 0.656 | 0.668 | – | 0.547 | 0.526 | 1.05 | 0.988 | 0.983 | 0.934 | 0.959 | 0.3 | 0.372 | 0.314 | 0.363 | 0.344
RERF-LC-KJ | 0.994 | 1.02 | 0.992 | 0.939 | 0.728 | 0.588 | 0.51 | 0.505 | 0.438 | 0.412 | 0.99 | 0.853 | 0.947 | 1.11 | 0.844 | 1.02 | 0.882 | 0.895 | 1.05 | 0.811
